Measured values taken from patent publication US20190209472A1, “FORMULATIONS FOR DERMAL DELIVERY OF POLYMER CONJUGATES OF INDOLOCARBAZOLE COMPOUNDS WITH REDUCED EXPOSURE” (Sienna Biopharmaceuticals, Inc., priority 2017, published 2019).
Read-outs that look alike come from different tables or passages of the source.

Legend:
[1] = test system: lesions of psoriasis vulgaris
Text: This was a Phase I, single-center, randomized, double-blind, placebo-controlled study in male and female patients with stable psoriasis vulgaris aged >18 and <71 years. Sixteen patients were enrolled in 2 treatment groups. […] Patients attended a screening visit within 21 days prior to Day 1. Patients were then admitted to the CPU in the afternoon of Day −1 and remained resident in the CPU until the morning of Day 8. Patients attended a follow-up visit 7 to 10 days after the last treatment administration on Day 7.
The ointment was applied by the CPU staff, using a spatula and finger cot.
Physicians Global Assessment (PGA) scores were assessed at screening, Day 1, Day 7 and at follow-up. Digital photographs of the application sites were also taken on admission to the CPU, Day 7 and at follow-up.

[2] = test system: human keratinocyte

## (9S, 10R, 12R)-10-(3′-mPEG2000-1′,3′-oxazolidine-2′,4′-dione)-2,3,9,10,11,12-hexahydro-9-methyl-1-oxo-9,12-epoxy-1H-diindolo[1,2,3-fg:3′,2′,1′-k,l]pyrrolo[3,4-i][1,6] benzodiazocine] [CT327]
[1]; Plaque 2, DAY 1, N = 12
  PGA Scaling 3: MODERATE, COARSE SCALE PREDOMINATES, patients (%): (8.3%)
  PGA Scaling 4: MARKED, THICK, NON-TENACIOUS SCALE DOMINATES, patients (%): (8.3%)
  Physician Static Global Score 2: MILD, patients (%): (25.0%)
  Physician Static Global Score 3: MODERATE, patients (%): (8.3%)
[1]; Plaque 2, DAY 7, N = 12
  PGA Erythma 2: LIGHT RED COLOURATION, patients (%): (25.0%)
  PGA Erythma 3: MODERATE RED COLOURATION, patients (%): (8.3%)
  PGA Induration 1: MINIMAL PLAQUE ELEVATION, =0.25 MM, patients (%): (25.0%)
  PGA Induration 2: MILD PLAQUE ELEVATION, =0.5 MM, patients (%): (8.3%)
  PGA Scaling 1: MINIMAL, OCCASIONAL FINE SCALE OVER LESS THAN 5% OF THE LESION, patients (%): (16.7%)
  PGA Scaling 2: MILD, FINE SCALE DOMINATES, patients (%): (16.7%)
  Physician Static Global Score 1: MINIMAL, patients (%): (8.3%)
  Physician Static Global Score 2: MILD, patients (%): (25.0%)
[1]; Plaque 2, FOLLOW-UP, N = 12
  PGA Erythma 2: LIGHT RED COLOURATION, patients (%): (33.3%)
  PGA Induration 1: MINIMAL PLAQUE ELEVATION, =0.25 MM, patients (%): (8.3%)
  PGA Induration 2: MILD PLAQUE ELEVATION, =0.5 MM, patients (%): (25.0%)
  PGA Scaling 1: MINIMAL, OCCASIONAL FINE SCALE OVER LESS THAN 5% OF THE LESION, patients (%): (8.3%)
  PGA Scaling 2: MILD, FINE SCALE DOMINATES, patients (%): (25.0%)
  Physician Static Global Score 2: MILD, patients (%): (33.3%)
[1]; Plaque 2, SCREENING, N = 12
  PGA Erythma 2: LIGHT RED COLOURATION, patients (%): (33.3%)
  PGA Erythma 3: MODERATE RED COLOURATION, patients (%): (25.0%)
  PGA Induration 1: MINIMAL PLAQUE ELEVATION, =0.25 MM, patients (%): (8.3%)
  PGA Induration 2: MILD PLAQUE ELEVATION, =0.5 MM, patients (%): (33.3%)
  PGA Induration 3: MODERATE PLAQUE ELEVATION, =0.75 MM, patients (%): (8.3%)
  PGA Induration 4: MARKED PLAQUE ELEVATION, =1 MM, patients (%): (8.3%)
  PGA Scaling 2: MILD, FINE SCALE DOMINATES, patients (%): (16.7%)
  PGA Scaling 3: MODERATE, COARSE SCALE PREDOMINATES, patients (%): (33.3%)
  PGA Scaling 4: MARKED, THICK, NON-TENACIOUS SCALE DOMINATES, patients (%): (8.3%)
  Physician Static Global Score 2: MILD, patients (%): (33.3%)
  Physician Static Global Score 3: MODERATE, patients (%): (16.7%)
  Physician Static Global Score 4: MARKED, patients (%): (8.3%)
[1]; Plaque 3, DAY 1, N = 12
  PGA Erythma 2: LIGHT RED COLOURATION, patients (%): (16.7%)
  PGA Induration 2: MILD PLAQUE ELEVATION, =0.5 MM, patients (%): (8.3%)
  PGA Induration 3: MODERATE PLAQUE ELEVATION, =0.75 MM, patients (%): (8.3%)
  PGA Scaling 2: MILD, FINE SCALE DOMINATES, patients (%): (8.3%)
  PGA Scaling 4: MARKED, THICK, NON-TENACIOUS SCALE DOMINATES, patients (%): (8.3%)
  Physician Static Global Score 2: MILD, patients (%): (8.3%)
  Physician Static Global Score 3: MODERATE, patients (%): (8.3%)
[1]; Plaque 3, DAY 7, N = 12
  PGA Erythma 2: LIGHT RED COLOURATION, patients (%): (8.3%)
  PGA Erythma 3: MODERATE RED COLOURATION, patients (%): (8.3%)
  PGA Induration 1: MINIMAL PLAQUE ELEVATION, =0.25 MM, patients (%): (16.7%)
  PGA Scaling 2: MILD, FINE SCALE DOMINATES, patients (%): (16.7%)
  Physician Static Global Score 2: MILD, patients (%): (16.7%)
[1]; Plaque 3, FOLLOW-UP, N = 12
  PGA Erythma 2: LIGHT RED COLOURATION, patients (%): (16.7%)
  PGA Induration 1: MINIMAL PLAQUE ELEVATION, =0.25 MM, patients (%): (8.3%)
  PGA Induration 2: MILD PLAQUE ELEVATION, =0.5 MM, patients (%): (8.3%)
  PGA Scaling 2: MILD, FINE SCALE DOMINATES, patients (%): (16.7%)
  Physician Static Global Score 2: MILD, patients (%): (16.7%)
[1]; Plaque 3, SCREENING, N = 12
  PGA Erythma 2: LIGHT RED COLOURATION, patients (%): (8.3%)
  PGA Erythma 3: MODERATE RED COLOURATION, patients (%): (16.7%)
  PGA Induration 2: MILD PLAQUE ELEVATION, =0.5 MM, patients (%): (8.3%)
  PGA Induration 3: MODERATE PLAQUE ELEVATION, =0.75 MM, patients (%): (8.3%)
  PGA Induration 4: MARKED PLAQUE ELEVATION, =1 MM, patients (%): (8.3%)
  PGA Scaling 3: MODERATE, COARSE SCALE PREDOMINATES, patients (%): (16.7%)
  PGA Scaling 4: MARKED, THICK, NON-TENACIOUS SCALE DOMINATES, patients (%): (8.3%)
  Physician Static Global Score 2: MILD, patients (%): (8.3%)
  Physician Static Global Score 3: MODERATE, patients (%): (8.3%)
  Physician Static Global Score 4: MARKED, patients (%): (8.3%)
[2]
  Inhibition of human keratinocyte proliferation in vitro: clear inhibitory activity
